Experiments:
[1] = target: Poly [ADP-ribose] polymerase 1 (Homo sapiens, UniProt P09874); test: Inhibition of PARP1 (unknown origin) at 1 nM preincubated with compound for 10 mins followed by DNA and NAD+ addition and measured after 60 mins by chemiluminescence based envision reader analysis relative to control; settings: time 70.0 min
[2] = target: T1, Poly [ADP-ribose] polymerase 2 (Homo sapiens, UniProt Q9UGN5); test: Inhibition of PARP2 (unknown origin) at 1 uM preincubated with compound for 10 mins followed by DNA and NAD+ addition and measured after 60 mins by chemiluminescence based envision reader analysis relative to control; settings: time 70.0 min
[3] = target: T1, Poly [ADP-ribose] polymerase 2; test: Inhibition of PARP2 (unknown origin) preincubated with compound for 10 mins followed by DNA and NAD+ addition and measured after 60 mins by chemiluminescence based envision reader analysis
[4] = system: MDA-MB-436; test: Antiproliferative activity against human MDA-MB-436 cells assessed as inhibition of cell proliferation at 100 nM incubated for 7 days by CCK-8 assay relative to control; type: functional; settings: MDA-MB-436, 168 h, time 7 day
[5] = Half life in male Balb/c mouse at 1 mg/kg, iv measured upto 96 hrs by LC-MS/MS analysis; type: ADME, organism-based; settings: in vivo, iv, 1 mg/kg, 96 h
[6] = AUC(0 to t) in male Balb/c mouse at 1 mg/kg, iv measured upto 96 hrs by LC-MS/MS analysis; type: ADME, organism-based; settings: in vivo, iv, 1 mg/kg, 96 h
[7] = Oral bioavailability in rat at 2.5 mg/kg measured upto 96 hrs by LC-MS/MS analysis; type: ADME, organism-based; settings: in vivo
[8] = target: T1, Poly [ADP-ribose] polymerase 2; test: Inhibition of PARP2 in PARP1 knockout human A549 cells preincubated with compound for 1 hr followed by H2O2 addition and measured after 5 mins by selective targeting PARylation inhibition assay; type: cell-based
[9] = system: MDA-MB-436; test: Induction of cell cycle arrest in human MDA-MB-436 cells assessed as accumulation of cells at S phase at 1 nM incubated for 3 days by PI staining based flow cytometric analysis (Rvb =18.94%); type: functional; settings: time 3 day
[10] = system: MDA-MB-436; test: Induction of apoptosis in human MDA-MB-436 cells assessed as late apoptotic cells at 10 nM incubated for 3 days by Annexin V/ PI staining based flow cytometry (reference value: 6.57%); type: functional; settings: time 3 day
[11] = system: MDA-MB-436; test: Induction of apoptosis in human MDA-MB-436 cells assessed as late apoptotic cells at 100 nM incubated for 3 days by Annexin V/ PI staining based flow cytometry (reference value: 6.57%); type: functional; settings: time 3 day
[12] = system: MDA-MB-436; test: Induction of cell cycle arrest in human MDA-MB-436 cells assessed as accumulation of cells at S phase at 10 nM incubated for 3 days by PI staining based flow cytometric analysis (Rvb =18.94%); type: functional; settings: time 3 day
[13] = system: MDA-MB-436; test: Induction of cell cycle arrest in human MDA-MB-436 cells assessed as accumulation of cells at S phase at 100 nM incubated for 3 days by PI staining based flow cytometric analysis (Rvb =18.94%); type: functional; settings: time 3 day
[14] = system: MDA-MB-436; test: Induction of cell cycle arrest in human MDA-MB-436 cells assessed as accumulation of cells at G0/G1 phase at 1 nM incubated for 3 days by PI staining based flow cytometric analysis (Rvb =56.18%); type: functional; settings: time 3 day
[15] = system: MDA-MB-436; test: Induction of cell cycle arrest in human MDA-MB-436 cells assessed as accumulation of cells at G0/G1 phase at 100 nM incubated for 3 days by PI staining based flow cytometric analysis (Rvb =56.18%); type: functional; settings: time 3 day
[16] = system: MDA-MB-436; test: Induction of cell cycle arrest in human MDA-MB-436 cells assessed as accumulation of cells at G2/M phase at 10 nM incubated for 3 days by PI staining based flow cytometric analysis (Rvb =24.88%); type: functional; settings: time 3 day
[17] = system: MDA-MB-436; test: Induction of cell cycle arrest in human MDA-MB-436 cells assessed as accumulation of cells at G2/M phase at 100 nM incubated for 3 days by PI staining based flow cytometric analysis (Rvb =24.88%); type: functional; settings: time 3 day
[18] = system: MDA-MB-436; test: Antitumor activity against human MDA-MB-436 cells xenografted in female NOD/SCID mouse assessed as inhibition of tumor growth administered orally once every other day for 28 days; type: functional, cell-based; settings: dose 0.3-3 mg/kg, route po, time 28.0 day
[19] = system: MDA-MB-436; test: Antitumor activity against human MDA-MB-436 cells xenografted in female NOD/SCID mouse assessed as tumor regression rate at 3 mg/kg, po administered once every other day for 28 days relative to control; type: functional; settings: time 28 day
[20] = Toxicity in female NOD/SCID mouse xenografted with human MDA-MB-436 cells assessed as histological changes in heart at 3 mg/kg, po administered once every other day for 28 days by H and E staining based analysis; type: organism-based; settings: in vivo, 672 h, time 28 day
[21] = Acute toxicity in Kunming mouse assessed as mortality at 100 to 300 mg/kg administered orally via gavage for 14 days; type: organism-based; settings: in vivo, po, 336 h, dose 100-300 mg/kg, time 14 day
[22] = Acute toxicity in Kunming mouse assessed as change in cellular morphology of lung at 100 mg/kg administered once every other day via gavage for 14 days by H and E staining based analysis; type: organism-based; settings: in vivo, po, 336 h, time 14 day
[23] = Sub-acute toxicity in Kunming mouse assessed as change ALTL level at 100 to 300 mg/kg administered via gavage for 14 days; type: organism-based; settings: in vivo, po, 336 h, dose 100-300 mg/kg, time 14 day
[24] = Sub-acute toxicity in Kunming mouse assessed as change UREAL level at 100 to 300 mg/kg administered via gavage for 14 days; type: organism-based; settings: in vivo, po, 336 h, dose 100-300 mg/kg, time 14 day
[25] = Sub-acute toxicity in Kunming mouse assessed as change ALTL level at 30 to 100 mg/kg administered via gavage once every other day for 14 days; type: organism-based; settings: in vivo, po, 336 h, dose 30-100 mg/kg, time 14 day

T1 sequence (Q9UGN5 whole entry): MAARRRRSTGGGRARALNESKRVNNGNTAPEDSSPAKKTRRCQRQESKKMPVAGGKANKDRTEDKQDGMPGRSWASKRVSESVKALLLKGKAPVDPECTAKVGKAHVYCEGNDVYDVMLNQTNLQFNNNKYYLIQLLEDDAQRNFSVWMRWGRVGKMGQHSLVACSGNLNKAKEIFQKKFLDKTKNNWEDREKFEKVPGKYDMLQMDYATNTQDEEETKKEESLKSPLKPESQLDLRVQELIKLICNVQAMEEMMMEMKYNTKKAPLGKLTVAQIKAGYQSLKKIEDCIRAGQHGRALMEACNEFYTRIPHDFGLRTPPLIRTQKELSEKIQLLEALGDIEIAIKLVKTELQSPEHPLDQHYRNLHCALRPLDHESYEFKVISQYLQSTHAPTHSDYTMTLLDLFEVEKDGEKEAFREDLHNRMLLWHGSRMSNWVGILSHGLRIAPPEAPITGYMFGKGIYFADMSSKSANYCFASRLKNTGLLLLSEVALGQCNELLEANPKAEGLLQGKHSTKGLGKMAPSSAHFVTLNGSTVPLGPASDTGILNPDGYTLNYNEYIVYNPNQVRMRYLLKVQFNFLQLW
Sequence of Poly [ADP-ribose] polymerase 1 (P09874 whole entry): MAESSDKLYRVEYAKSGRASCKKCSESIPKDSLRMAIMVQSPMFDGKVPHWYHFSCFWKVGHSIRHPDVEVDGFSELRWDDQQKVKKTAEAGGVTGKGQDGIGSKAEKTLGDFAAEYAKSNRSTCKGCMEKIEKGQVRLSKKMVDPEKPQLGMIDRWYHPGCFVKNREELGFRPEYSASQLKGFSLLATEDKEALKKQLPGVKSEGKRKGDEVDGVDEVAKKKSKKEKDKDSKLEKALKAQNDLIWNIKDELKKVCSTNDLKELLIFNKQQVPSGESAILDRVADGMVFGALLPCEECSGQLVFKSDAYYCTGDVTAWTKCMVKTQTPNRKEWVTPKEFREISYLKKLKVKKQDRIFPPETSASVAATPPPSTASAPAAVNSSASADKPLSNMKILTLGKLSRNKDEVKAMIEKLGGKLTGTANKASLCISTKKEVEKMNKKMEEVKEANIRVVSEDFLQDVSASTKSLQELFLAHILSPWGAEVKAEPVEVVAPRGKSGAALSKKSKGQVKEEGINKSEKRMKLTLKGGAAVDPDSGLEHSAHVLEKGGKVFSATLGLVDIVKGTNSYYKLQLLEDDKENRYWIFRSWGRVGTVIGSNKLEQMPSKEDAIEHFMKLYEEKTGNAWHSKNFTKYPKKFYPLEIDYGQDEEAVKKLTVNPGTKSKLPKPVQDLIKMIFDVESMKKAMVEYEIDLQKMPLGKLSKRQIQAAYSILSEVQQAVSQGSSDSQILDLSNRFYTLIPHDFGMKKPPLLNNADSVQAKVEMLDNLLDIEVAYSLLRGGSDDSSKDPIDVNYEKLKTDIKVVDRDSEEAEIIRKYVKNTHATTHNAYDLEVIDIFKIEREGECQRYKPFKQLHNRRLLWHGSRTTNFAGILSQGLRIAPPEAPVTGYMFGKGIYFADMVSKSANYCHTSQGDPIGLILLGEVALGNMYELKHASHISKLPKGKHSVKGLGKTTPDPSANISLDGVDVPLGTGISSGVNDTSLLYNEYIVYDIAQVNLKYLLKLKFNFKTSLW

CCc1cc2ncc(CN3CC=C(c4ccc(C#N)cn4)CC3)cc2[nH]c1=O
inhibition [1]: 93.6% | inhibition [2]: 72.9% | IC50 [3]: 122 nM | inhibition at 0.1 µM [4]: 82.2% | t1/2 [5]: 107.53 h | AUCt [6]: 897.43221 µg·h/mL | bioavailability [7]: 85.5% | IC50 [8]: 5190 nM | Activity [9]: 14.99% | Activity [10]: 9.94% | Activity [11]: 9.92% | Activity [12]: 10.18% | Activity [13]: 9.37% | Activity [14]: 56.97% | Activity [15]: 53.32% | Activity [16]: 29.58% | Activity [17]: 37.31% | Activity [18]: Dose-dependent-effect | Activity [19]: 79.8% | Activity [20]: Non-toxic | Activity [21]: Non-toxic | Activity [22]: Non-toxic | Activity [23]: Non-toxic | Activity [24]: Non-toxic | Activity [25]: Non-toxic

Source: ChEMBL document CHEMBL6096703 (J Med Chem, 2025)
